Converted amounts (≈) assume the structure as drawn.

Common to all, as to assay type: cell-based, Staphylococcus aureus
The subject of one assay is Staph aureus 1095 MRSA. Put plainly: MIC, microtiter broth dilution (CLSI M7-A7), Assay 1, Table 12 column A, no serum. Particulars: Assay 1, no serum; for MIC: Staphylococcus aureus, MRSA. The essentials:
(§1)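 Compounds were prepared in DMSO at 10 mg/ml, then tested by microtiter broth dilution following CLSI M7-A7. Growth was scored visually, and the MIC taken as the lowest concentration without macroscopically visible growth. Where tested repeatedly, the geometric mean is given.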
(In general: Broth dilution looks for growth in wells or tubes with falling amounts of substance.)

In a further assay the test system is Staph aureus 2811. In words: MIC, microtiter broth dilution (CLSI M7-A7), Assay 1, Table 12 column D, no serum. Particulars: for MIC, column D: Staph aureus 2811, Assay 1, no serum; for MIC: Staphylococcus aureus, 2811, Staph aureus 2811, Assay 1, no serum. A digest of the protocol: as §1
The test system of assay [1] is Staph aureus 1146. Put plainly: MIC, microtiter broth dilution (CLSI M7-A7), Assay 1, Table 12 column B, no serum. Particulars: for MIC, column B: Staph aureus 1146, Assay 1, no serum; for MIC: Staphylococcus aureus, 1146, Staph aureus 1146, Assay 1, no serum. A digest of the protocol: as §1
Assay [2] deals with Staph aureus 1146. Put plainly: MIC in Mueller-Hinton Broth with 50% pooled inactivated human serum, Assay 1, Table 12. Particulars: for MIC, column C: Staph aureus 1146, Assay 1, 50% human serum; for MIC: Staphylococcus aureus, 1146, Staph aureus 1146, Assay 1, 50% human serum, read-out: MIC, column C. A digest of the protocol:
as §1

Another assay has as its system Staph aureus 2812. In words: MIC, microtiter broth dilution (CLSI M7-A7), Assay 1, Table 12 column E, no serum. Particulars: for MIC, column E: Staph aureus 2812, Assay 1, no serum; for MIC: Staphylococcus aureus, 2812, Staph aureus 2812, Assay 1, no serum. A digest of the protocol:
as §1

As to `COc1ccc2nccc([C@@H](O)CC[C@@H]3CCN(C4CC(C5CCCC5)C4)C[C@@H]3C(=O)O)c2c1` (stereo partly drawn) [Example 48, (3R,4R)-1-(3-cyclopentylcyclobutyl)-4-[(3S)-3-hydroxy-3-(6-methoxyquinolin-4-yl)propyl]piperidine-3-carboxylic acid], the “MIC, column A” value against Staph aureus 1095 MRSA worked out at 0.25 µg/mL (≈ 0.536 µM). Also, in the assay on Staph aureus 2811, the “MIC, column D” value was found to be 0.125 µg/mL (≈ 0.268 µM). Also, in the assay with Staph aureus 1146 [1], the “MIC, column B” value worked out at 0.125 µg/mL (≈ 0.268 µM). In addition, in the assay on Staph aureus 1146 [2], the “MIC, column C” value was determined as 1 µg/mL (≈ 2.14 µM). The “MIC, column E” value with Staph aureus 2812 is 0.125 µg/mL (≈ 0.268 µM).

For the compound `COc1ccc2nccc(C(O)CC[C@@H]3CCN(C4CC(CC5CCCC5)C4)C[C@@H]3C(=O)O)c2c1` (stereo partly shown) [Example 49], the “MIC, column A” value in the assay with Staph aureus 1095 MRSA came out at 0.125 µg/mL (≈ 0.26 µM). For the same compound, in the assay on Staph aureus 2811, the “MIC, column D” value is on record as “<=.0625 μg/ml”. The “MIC, column B” value against Staph aureus 1146 [1] was “<=.0625 μg/ml”. The “MIC, column C” value in the assay on Staph aureus 1146 [2] is 0.25 µg/mL (≈ 0.52 µM). For the same compound, the “MIC, column E” value with Staph aureus 2812 is on record as “<=.0625 μg/ml”.

With `COc1ccc2nccc(C(O)CC[C@@H]3CCN(C4CC(C5CCOCC5)C4)C[C@@H]3C(=O)O)c2c1` (stereo partly drawn) [Example 50, (3R,4R)-4-[3-hydroxy-3-(6-methoxyquinolin-4-yl)propyl]-1-[3-(tetrahydro-2H-pyran-4-yl)cyclobutyl] piperidine-3-carboxylic acid], the MIC – broadly, the lowest concentration found to suppress growth – against Staph aureus 1095 MRSA was determined as 32 µg/mL (≈ 66.3 µM); with Staph aureus 2811, 64 µg/mL (≈ 133 µM); in the assay on Staph aureus 1146 [1], 32 µg/mL (≈ 66.3 µM); with Staph aureus 1146 [2], 32 µg/mL (≈ 66.3 µM); with Staph aureus 2812, 64 µg/mL (≈ 133 µM).

For the compound `COc1ccc2nccc(C(O)CC[C@@H]3CCN(C4CC(CC5CCOC5)C4)C[C@@H]3C(=O)O)c2c1` (stereo partly drawn) [Example 51, (3R,4R)-4-[3-hydroxy-3-(6-methoxyquinolin-4-yl)propyl]-1-[3-(tetrahydrofuran-3-ylmethyl)cyclobutyl]piperidine-3-carboxylic acid], the MIC turned out to be 32 µg/mL (≈ 66.3 µM) in the assay on Staph aureus 1095 MRSA; 16 µg/mL (≈ 33.2 µM) against Staph aureus 2811; 16 µg/mL (≈ 33.2 µM) with Staph aureus 1146 [1]; 16 µg/mL (≈ 33.2 µM) with Staph aureus 1146 [2]; 8 µg/mL (≈ 16.6 µM) against Staph aureus 2812.

On to `COc1ccc2nccc(C(O)CC[C@@H]3CCN(C4CC(CC5CCCO5)C4)C[C@@H]3C(=O)O)c2c1` (stereo partly drawn) [Example 52, (3R,4R)-4-[3-hydroxy-3-(6-methoxyquinolin-4-yl)propyl]-1-[3-(tetrahydrofuran-2-ylmethyl)cyclobutyl]piperidine-3-carboxylic acid], for which the MIC is above 64 µg/mL against Staph aureus 1095 MRSA; 8 µg/mL (≈ 16.6 µM) in the assay on Staph aureus 2811; 16 µg/mL (≈ 33.2 µM) in the assay with Staph aureus 1146 [1]; 16 µg/mL (≈ 33.2 µM) in the assay with Staph aureus 1146 [2]; 32 µg/mL (≈ 66.3 µM) with Staph aureus 2812.

Take `COc1ccc2nccc(C(O)CC[C@@H]3CCN(C4CC5CCCCCC54)C[C@@H]3C(=O)O)c2c1` (stereo partly drawn) [Example 53, (3R,4R)-1-[(1,7)-bicyclo[5.2.0]non-8-yl]-4-[3-hydroxy-3-(6-methoxyquinolin-4-yl)propyl] piperidine-3-carboxylic acid]: the “MIC, column A” value against Staph aureus 1095 MRSA was 16 µg/mL (≈ 34.3 µM). Further, in the assay on Staph aureus 2811, the “MIC, column D” value was 32 µg/mL (≈ 68.6 µM). In addition, the “MIC, column B” value in the assay with Staph aureus 1146 [1] is above 64 µg/mL. For the same compound, the “MIC, column C” value with Staph aureus 1146 [2] was above 64 µg/mL. Moreover, in the assay with Staph aureus 2812, the “MIC, column E” value is 16 µg/mL (≈ 34.3 µM).

As for `COc1ccc2nccc(C(O)CC[C@@H]3CCN(C4CC5CCCCC54)C[C@@H]3C(=O)O)c2c1` (stereo partly drawn) [Example 54, (3R,4R)-1-[(1,6)-bicyclo[4.2.0]oct-7-yl]-4-[3-hydroxy-3-(6-methoxyquinolin-4-yl)propyl] piperidine-3-carboxylic acid], the “MIC, column A” value with Staph aureus 1095 MRSA is above 64 µg/mL. In the assay on Staph aureus 2811, the “MIC, column D” value was above 64 µg/mL. Moreover, in the assay on Staph aureus 1146 [1], the “MIC, column B” value came to 64 µg/mL (≈ 141 µM). Besides, in the assay with Staph aureus 1146 [2], the “MIC, column C” value is above 64 µg/mL. The “MIC, column E” value against Staph aureus 2812 is above 64 µg/mL.

Regarding `COc1ccc2nccc(C(O)CC[C@@H]3CCN(C4CC5(CCCC5)C4)C[C@@H]3C(=O)O)c2c1` (stereo partly drawn) [Example 55, (3R,4R)-4-[3-hydroxy-3-(6-methoxyquinolin-4-yl)propyl]-1-spiro[3.4]oct-2-ylpiperidine-3-carboxylic acid], the MIC is 4 µg/mL (≈ 8.84 µM) against Staph aureus 1095 MRSA; 2 µg/mL (≈ 4.42 µM) with Staph aureus 2811; 1 µg/mL (≈ 2.21 µM) against Staph aureus 1146 [1]; 32 µg/mL (≈ 70.7 µM) with Staph aureus 1146 [2]; 2 µg/mL (≈ 4.42 µM) against Staph aureus 2812.

Values taken from patent publication US20080280879A1, “SUBSTITUTED HETEROCYCLIC DERIVATIVES AND THEIR PHARMACEUTICAL USE AND COMPOSITIONS” (priority 2007, published 2008).
